Experiments:
Blattella germanica = test: Contact test on treated glass vials, synergist with cypermethrin; type: in vivo
Procedure: Laboratory bred B. germanica species, mixed ages (pre-immaginal and imagoes) and mixed sex were assayed for the test.
An insecticide stock solution was prepared with 150 μL of cypermethrin commercial formulation and diluted to 15 μL/mL with technical acetone to a final volume of 10 mL. The solution contained 450 μg/mL of cypermethrin per liter of insecticidal solution
Stock solution of the compounds of Example 1 and Example 2 were prepared dissolving around 10 mg of EC formulations containing compounds of the Example 1 and Example 2 in technical acetone to have a final concentration of 1.365 μg/mL.
Stock solution (1650 μL) was diluted to 2250 μL with acetone or with stock of insecticide in acetone to have respectively a final concentration of 1 g/L of synergist (as active ingredient) or 0.12 g/L of cypermethrin+1 g/L of the compounds of Example 1 and Example 2. Insecticide alone was prepared adding 600 μL of stock solution to 1650 μL of acetone.
Glass vials (internal surface 35 cm^2) were treated with 350 μL of insecticide solution and allowed to dry in a fume hood on a vial rotator and used as soon as the acetone was fully evaporated.
B. germanica specimens were introduced singly in vials. 20 specimens were tested for each combination of product. The exposure time to product residues was 30 minutes. After this duration the specimens were transferred to an untreated vial ad provided with food and water.
In parallel within the test, a control study has been set up with the same conditions and methods using acetone only treated vials.
The test conditions were as follows: • temperature: 22-24° C. during knock down evaluation (t: 0-30′); 26° C. during mortality assessment (t: 24 h) • relative humidity: min. 60% • light regime: 8 hrs dark/16 hrs natural illumination.
The reading intervals of the number of knocked down and the number of dead insects were: 5-10-15-20-25-30 minutes. A final reading was done 24 hours after the starting of the exposure.
The calculation model of efficacy is according to Abbott's formula (Abbott W S (1925) A method for computing the effectiveness of an insecticide. J. Econ. Entomol. 18: 265-267):
The results are reported in the following Table 5 and represent an average of 4 repetitions.

[1] = system: CYP6CY3 from Myzus persicae; test: Inhibition of recombinant oxidase enzyme (P450) CYP6CY3, MFC substrate; type: biochemical; conditions: for inhibition activity compared with PBO: CYP6CY3, statement in text; for Myzus persicae CYP6CY3 percentage of activity remaining: recombinant enzyme 50 μL + 3 μL stock in acetone (Examples 1 and 2: 0.1 mM; PBO: 10 mM), 10 min incubation, MFC
Procedure: (§1) Ability of the synergists of the invention to inhibit oxidative enzymes (P450), a major mechanism conferring resistance to xenobiotics, was measured using recombinant enzymes corresponding to CYP6CY3 from Myzus persicae and CYP6CM1 from Bemisia tabaci.
(§2) The following synergists were tested in comparison with piperonyl butoxide (PBO): • 5-n-butyl-6-((prop-2-ynyloxy)methyl)benzo[d][1,3]dioxole the compound prepared in Example 2 • 5-n-hexyl-6-((prop-2-ynyloxy)methyl)benzo[d][1,3]dioxole the compound prepared in Example 1 CYP6CM1
For CYP6CY3, 7-ethoxycoumarin was not an appropriate substrate and MFC (7-methoxy-4-trifluoromethylcoumarin) was utilised instead. MFC was dissolved in dimethylsulfoxide to make a 20 mM stock solution and diluted by the addition of 0.1 M sodium phosphate buffer, pH 7.8, to give a concentration of 0.5 mM. Recombinant enzyme (10 μL) was added to separate wells of a microplate as before and diluted to 50 μL with 0.1 M phosphate buffer pH 7.6, followed by the addition of 80 μL of 0.5 mM MFC. The microplate was incubated for 5 min at 30° C., and the reaction was initiated by the addition of 10 μL of 9.6 mM NADPH in 0.1 M sodium phosphate, pH 7.8. Enzyme activity was read in a Spectramax Gemini EM for 60 min, with readings taken every 2 min, using an excitation wavelength of 410 nm and an emission wavelength of 510 nm, with a 495 nm cut-off filter. The rate (FU min^−1) was calculated by the integrated software, Softmax Pro v.5.4. as before.
For inhibition assays, stock solutions of the compounds of Example 1 and 2 (0.1 mM) were prepared in acetone. Dilute recombinant enzyme (50 μL) was mixed with 3 μL of stock solutions, with acetone only used as a control. After 10 min incubation at room temperature, 80 μL of 0.5 mM MFC was added, followed by 10 μL of 9.6 mM NADPH in 0.1 M sodium phosphate, pH 7.8. Enzyme activity remaining was then monitored as above. A PBO solution (10 mM) was prepared in the same way as a comparison.

[2] = system: CYP6CM1 from Bemisia tabaci; test: Inhibition of recombinant oxidase enzyme (P450) CYP6CM1, 7-ethoxycoumarin O-deethylation; conditions: for inhibition activity compared with PBO: CYP6CM1, statement in text; for Bemisia tabaci CYPCM1 percentage of activity remaining: recombinant enzyme 50 μL + 3 μL of 10 mM stock in acetone, 10 min incubation, 7-ethoxycoumarin
Procedure: as §1, §2
Substrate used was 7-ethoxycoumarin for inhibition assays as described by Ulrich and Weber (1972) and adapted to microplate format as described by De Sousa et al. (1995).
For inhibition assays, stock solutions of the compounds of Example 1 and Example 2 (10 mM) were prepared in acetone. Diluted recombinant enzyme (50 μL) was mixed with 3 μL of the above mentioned compound stock solutions, with acetone only used as a control. After 10 min incubation at room temperature, 80 μL of 0.125 mM 7-ethoxycoumarin was added, followed by 10 μL 9.6 mM NADPH (nicotinamide adenine dinucleotide phosphate) in 0.1 M sodium phosphate, pH 7.8, and O-deethylation activity monitored as above. A PBO solution (10 mM) was prepared in the same way as a comparison.

[3] = system: Myzus persicae clone highly resistant to insecticide; test: Contact test on treated plant (pea seedling dip), synergist with neonicotinoid; type: in vivo; conditions: for Efficacy of the tested compounds: synergist 1 g/L, mortality assessed at 48 hours, Abbott's formula
Procedure: Laboratory bred Myzus persicae clone highly resistant to insecticide, derived from a field collected population after control failure, mixed age apterous parthenogenetic females adults, were assayed for the test.
Four (4) different commercially available formulated insecticides were used and diluted as follow: • imidacloprid: 1000 mL of test solution was prepared diluting in water 20 μL of commercial formulation, containing 200 g/L of a.i., equivalent to 0.004 g of imidacloprid per liter of insecticidal solution; • thiacloprid: 1000 mL of test solution was prepared diluting in water 24 μL of commercial formulation containing 480 g/L of a.i, equivalent to 0.012 g of thiacloprid per liter of insecticidal solution;
The compounds of Example 1 and Example 2 were formulated in the form of emulsified concentrate (EC).
The following amount of the EC formulations were added to the above described insecticidal solution of insecticide to have a final concentration of synergist equal to 1 g/L:
20 mL of test formulations were used to wet by dipping for 5″ a small pea seedling (1-1.5 cm long). Seedlings were left at room temperature in a fume hood and allowed to dry for 15″. After drying 10-15 apterous parthenogenetic females were moved to the seedling and allowed to settle. Mortality produced by pyrethroids was assessed 24 hours later. Mortality produced by neonicotinoids was assessed 48 hours later.
Three replicates were executed each composed by 2 subreplicates (seedlings) and 60-90 specimens were used per test formulation.
In parallel with the test, the mortality of aphids in an untreated control replicate (seedlings dipped in water) was determined using the same conditions and methods.
The efficacy was calculated according the Abbott's formula: […]

[4] = Imidacloprid (0.004 g per liter)
[5] = thiacloprid (0.012 g per liter)

SMILES	synergist effect when mixed with Cypermethrin (Blattella germanica)	inhibition activity compared with PBO [1]	Myzus persicae CYP6CY3 percentage of activity remaining [1] [%]	inhibition activity compared with PBO [2]	Bemisia tabaci CYPCM1 percentage of activity remaining [2] [%]	efficacy in combination with imidacloprid and thiacloprid [3]	Efficacy of the tested compounds [3, 4]	Efficacy of the tested compounds [3, 5]
C#CCOCc1cc2c(cc1CCCCCC)OCO2 [Compound of Example 1, 5-n-hexyl-6-((prop-2-ynyloxy)methyl)benzo[d][1,3]dioxole]	synergist effect	better than PBO	8.51	better than PBO	85.19	very good efficacy	23.8	23.8
C#CCOCc1cc2c(cc1CCCC)OCO2 [Compound of Example 2, 5-n-butyl-6-((prop-2-ynyloxy)methyl)benzo[d][1,3]dioxole]	synergist effect	better than PBO	4.04	better than PBO	53.48	very good efficacy	−20.3	−20.3

Reference: US10537100B2, “Substituted methylenedioxybenzyl compounds and their use as synergists” (Endura SPA, priority 2015, dated 2020)
